Experimental data published in patent US10358456B2, “Platinum(II) complexes with selone ligands and method of use” (KING FAHD UNIVERSITY OF PETROLEUM AND MINERALS, priority 2017, dated 2019).

Key:
[1] = tested on: HeLa (cervical cancer cells); assay: MTT assay for anticancer activity (in vitro cytotoxicity), HeLa; format: cell-based, human; conditions: for IC50: MTT, incubated 24 h with compound, read-out: IC50 ± SEM, HeLa (concentration causing 50% reduction in cell viability)
Method: (§1) Cell Cultures: Human Cervical cancer HeLa and Brest cancer cell lines MCF-7 were grown in Dulbecco's modified Eagle's medium (DMEM) supplemented with 10% Fetal Bovine Serum (FBS), and 1% penicillin (10,000 units), streptomycin (10 mg), in 74 cm2 flask and incubated until 80% confluences obtained in humidified environment of, 5% CO2, 95% air, 37° C.
(§2) Complexes 1-7 and cisplatin (positive control) at 0.195 μM, 0.39 μM, 0.781 μM, 1.56 μM, 3.125 μM, 6.25 μM, 12.5 μM, 25 μM, and 50 μM concentrations were prepared in DMEM. Cancer cells were seeded and maintained in quadruplicate in a 96-well tissue culture plate at 5×10^4 cells per well in 200 μl of same medium. The cancer cells were incubated 24 hours before the treatment. All compounds were dissolved in 50% DMSO. Therefore, DMSO was used as a negative control. The final DMSO concentration, in each well, was less than 0.1%. The cancer cells were treated with the synthesized compounds 1-8 along with the cisplatin and the resultant cultures were incubated for 24 h. The medium of wells was discarded and 100 μL DMEM containing MTT (3-(4,5-dimethylthiazol-2-yl)-2,5-diphenyltetrazolium bromide) (5 mg/mL) was added to the wells and incubated in a CO2 incubator at 37° C. in the dark for 4 hrs. After incubation, a purple colored formazan (artificial chromogenic dye, a product of the reduction of water insoluble tetrazolium salts e.g., MTT by dehydrogenases and reductases) in the cells is produced and appeared as dark crystals in the bottom of the wells. The medium of culture was discarded from each well carefully to avoid disruption of the monolayer. 100 μL of isopropanol was added in each well. The solution was thoroughly mixed in the wells to dissolve the formazan crystals which ultimately results into a purple solution. The absorbance of the 96-well plate was measured at 570 nm with Mithras2LB943 against reagent blank. All data presented are mean±standard deviation.
(§3) To examine the possible anticancer effect of cisplatin and the prepared complexes, two human tumor cell lines, HeLa (cervical cancer cells) and MCF7 (breast cancer cells) were used. The results of in vitro cytotoxic activity are expressed as IC50 (concentration causing 50% reduction in cell viability) and are presented in Table 5.

[2] = tested on: MCF7 (breast cancer cells); assay: MTT assay for anticancer activity (in vitro cytotoxicity), MCF7; format: cell-based, human; conditions: for IC50: MTT, incubated 24 h with compound, read-out: IC50 ± SEM, MCF7 (concentration causing 50% reduction in cell viability)
Method: as §1, §2, §3

Structure (SMILES)	IC50 [1] [µM]	IC50 [2] [µM]	activity against MCF7 cells, compared among the complexes and with cisplatin ([2]; in words)	antiproliferative potency in HeLa cells, compared among the complexes and with cisplatin ([1]; in words)
NC(N)=[Se][Pt]([Cl])([Cl])[Se]=C(N)N [(1), Pt(SeU)2Cl2]	19.78 ± 0.13	11.11 ± 0.05	–	–
[Cl][Pt]([Cl])(=[Se]=C1NCCN1)=[Se]=C1NCCN1 [(2), Pt(ImSe)2Cl2]	–	–	most active	–
CCN1CCNC1=[Se][Pt]([Cl])([Cl])[Se]=C1NCCN1CC [(3), Pt(EtImSe)2Cl2]	17.73 ± 0.14	8.59 ± 0.07	–	–
CCCN1CCNC1=[Se][Pt]([Cl])([Cl])[Se]=C1NCCN1CCC [(4), Pt(PrImSe)2Cl2]	12.9 ± 0.16	18.64 ± 0.03	–	–
CC(C)N1CCNC1=[Se][Pt]([Cl])([Cl])[Se]=C1NCCN1C(C)C [(5), Pt(i-PrImSe)2Cl2]	14 ± 0.16	8.3 ± 0.06	–	–
[Cl][Pt]([Cl])([Se]=C1NCCCN1)[Se]=C1NCCCN1 [(6), Pt(DiazSe)2Cl2]	11.3 ± 0.2	12.27 ± 0.01	–	strongest antiproliferative potency
[Cl][Pt]([Cl])([Se]=C1NCCCCN1)[Se]=C1NCCCCN1 [(7), Pt(DiapSe)2Cl2]	11.5 ± 0.22	16.68 ± 0.02	–	–
N.N.[Cl][Pt][Cl] [Cisplatin, cisplatin, reference compound]	21.4 ± 0.73	8.98 ± 0.07	–	–
